# Source: patent publication EP0664802B1, “N-ARYLHETEROARYLALKYL 1-PHENYL-IMIDAZOL-2-ONE COMPOUNDS FOR TREATMENT OF CIRCULATORY DISORDERS” (G.D. SEARLE & CO., priority 1992, dated 1994)
# Values joined by “and” are separate entries in the source; they are usually repeats but may differ in a detail not shown here. Equal entries are not always repeated.
# Key:
# pressor response to AII = assay: Assay C: In Vivo Intragastric Pressor Assay Response for AII antagonists; design: species or system Sprague-Dawley rats; conditions: Dose: 3 mg/kg (i.g.); for Assay C Duration: AII challenges up to 180 minutes after gavage; for Assay C Inhibition (%): inhibition of pressor response to 30 ng/kg AII bolus, conscious rats
# Description: Assay C: In Vivo Intragastric Pressor Assay Response for All Antagonists
# Male Sprague-Dawley rats weighing 225-300 grams were anesthetized with methohexital (30 mg/kg, i.p.) and catheters were implanted into the femoral artery and vein. The catheters were tunneled subcutaneously to exit dorsally, posterior to the head and between the scapulae. The catheters were filled with heparin (1000 units/ml of saline). The rats were returned to their cage and allowed regular rat chow and water ad libitum. After full recovery from surgery (3-4 days), rats were placed in Lucite holders and the arterial line was connected to a pressure transducer. Arterial pressure was recorded on a Gould polygraph (mmHg). Angiotensin II was administered as a 30 ng/kg bolus via the venous catheter delivered in a 50 µl volume with a 0.2 ml saline flush. The pressor response in mm Hg was measured by the difference from pre-injection arterial pressure to the maximum pressure achieved. The AII injection was repeated every 10 minutes until three consecutive injections yielded responses within 4 mmHg of each other. These three responses were then averaged and represented the control response to AII. The test compound was suspended in 0.5% methylcellulose in water and was administered by gavage. The volume administered was 2 ml/kg body weight. The standard dose was 3 mg/kg. Angiotensin II bolus injections were given at 30, 45, 60, 75, 120, 150, and 180 minutes after gavage. The pressor response to AII was measured at each time point. The rats were then returned to their cage for future testing. A minimum of 3 days was allowed between tests. Percent inhibition was calculated for each time point following gavage by the following formula: [(Control Response - Response at time point)/Control Response] X 100 [formula] .
# rabbit aortic rings = assay: Assay B: In Vitro Vascular Smooth Muscle Response for AII (antagonist activity, isometric force); assay type: cell-based; conditions: antagonist at 10^-5 M, 5 min before AII challenge; Schild; aorta rings from two rabbits (two values per cell)
# Description: Assay B: In Vitro Vascular Smooth Muscle-Response for AII
# The compounds of the invention were tested for antagonist activity in rabbit aortic rings. Male New Zealand white rabbits (2-2.5 kg) were sacrificed using an overdose of pentobarbital and exsanguinated via the carotid arteries. The thoracic aorta was removed, cleaned of adherent fat and connective tissue and then cut into 3-mm ring segments. The endothelium was removed from the rings by gently sliding a rolled-up piece of filter paper into the vessel lumen. The rings were then mounted in a water-jacketed tissue bath, maintained at 37°C, between moveable and fixed ends of a stainless steel wire with the moveable end attached to an FT03 Grass transducer coupled to a Model 7D Grass Polygraph for recording isometric force responses. The bath was filled with 20 ml of oxygenated (95% oxygen/5% carbon dioxide) Krebs solution of the following composition (mM): 130 NaCl, 15 NaHC03, 15 KCl, 1.2 NaH2P04, 1.2 MgS04, 2.5 CaC12, and 11.4 glucose. The preparations were equilibrated for one hour before approximately one gram of passive tension was placed on the rings. Angiotensin II concentration-response curves were then recorded (3 X 10^-10 to 1 x 10^-5 M). Each concentration of AII was allowed to elicit its maximal contraction, and then AII was washed out repeatedly for 30 minutes before rechallenging with a higher concentration of AII. Aorta rings were exposed to the test antagonist at 10^-5 M for 5 minutes before challenging with AII. Adjacent segments of the same aorta ring were used for all concentration-response curves in the presence or absence of the test antagonist. The effectiveness of the test compound was expressed in terms of pA2 values and were calculated according to H.O. Schild [Br. J. Pharmacol. Chemother., 2,189-206 (1947)]. The pA2 value is […] of the antagonist which increases the EC50 value for AII by a factor of two. Each test antagonist was evaluated in aorta rings from two rabbits.
Compound,Assay C Duration (pressor response to AII) [min],Assay C Inhibition (%) (pressor response to AII),Assay B pA2 (rabbit aortic rings)
"CCCCc1cn(-c2ccccc2CC)c(=O)n1Cc1ccc(-c2ccccc2-c2nnn[nH]2)nc1 [Example 1, 1-(2-ethylphenyl)-4-butyl-1,3-dihydro-3-[[6-[2-(1H-tetrazol-5-yl)phenyl]-3-pyridinyl]methyl]-2H-imidazol-2-one]",>180,80,
"CCCCc1cn(-c2c(C)cc(C)cc2C)c(=O)n1Cc1ccc(-c2ccccc2-c2nnn[nH]2)nc1 [Example 5, 1-(2,4,6-trimethylphenyl)-4-butyl-1,3-dihydro-3-[[6-[2-(1H-tetrazol-5-yl)phenyl]-3-pyridinyl]methyl]-2H-imidazol-2-one]",>180,70,8.59 and 8.89
"CCCCc1cn(-c2c(C)cc(C(C)(C)C)cc2C)c(=O)n1Cc1ccc(-c2ccccc2-c2nnn[nH]2)nc1 [Example 6, 1-(2,6-dimethyl-4-tertbutylphenyl)-4-butyl-1,3-dihydro-3-[[6-[2-(1H-tetrazol-5-yl)phenyl]-3-pyridinyl]methyl]-2H-imidazol-2-one]",,,8.51 and 8.78
"CCCCc1cn(-c2ccccc2C(C)(C)C)c(=O)n1Cc1ccc(-c2ccccc2-c2nnn[nH]2)nc1 [Example 2, 1-(2-tertbutylphenyl)-4-butyl-1,3-dihydro-3-[[6-[2-(1H-tetrazol-5-yl)phenyl]-3-pyridinyl]methyl]-2H-imidazol-2-one]",>180,40,
"CCCCc1cn(-c2c(CC)cccc2CC)c(=O)n1Cc1ccc(-c2ccccc2-c2nnn[nH]2)nc1 [Example 7, 1-(2,6-diethylphenyl)-4-butyl-1,3-dihydro-3-[[6-[2-(1H-tetrazol-5-yl)phenyl]-3-pyridinyl]methyl]-2H-imidazol-2-one]",,20,
"CCCCc1cn(-c2c(C(C)C)cccc2C(C)C)c(=O)n1Cc1ccc(-c2ccccc2-c2nnn[nH]2)nc1 [Example 8, 1-(2,6-diisopropylphenyl)-4-butyl-1,3-dihydro-3-[[6-[2-(1H-tetrazol-5-yl)phenyl]-3-pyridinyl]methyl]-2H-imidazol-2-one]",,,7.14 and 7.07
"CCCCc1cn(-c2c(C)cccc2Cl)c(=O)n1Cc1ccc(-c2ccccc2-c2nnn[nH]2)nc1 [Example 4, 1-(2-chloro-6-methylphenyl)-4-butyl-1,3-dihydro-3-[[6-[2-(1H-tetrazol-5-yl)phenyl]-3-pyridinyl]methyl]-2H-imidazol-2-one]",>180,75,
"CCCCc1cn(-c2c(OC)cccc2OC)c(=O)n1Cc1ccc(-c2ccccc2-c2nnn[nH]2)nc1 [Example 3, 1-(2,6-dimethoxyphenyl)-4-butyl-1,3-dihydro-3-[[6-[2-(1H-tetrazol-5-yl)phenyl]-3-pyridinyl]methyl]-2H-imidazol-2-one]",>180,25,
